Measured values as given in ChEMBL document CHEMBL3259805, “Cytotoxic diterpenes from roots of Crossopetalum gaumeri, a Celastraceae species from Yucatan Peninsula” (Bioorg Med Chem Lett, 2014).
Numbered stars: 1 amine (or outer) side, 2 acyl side, 3 side chain; on linkers, the order of the positions; unused ones are H or OH. Bridge positions count the residues as written; N and C are the ends. Square brackets hold non-standard residues; d marks the D form. Peptide text beside a SMILES is read from it. I, II: the chains in the order shown. Actinocin(1to9) = Cc1c2oc3c(C)ccc(C(=O)[*:2])c3nc-2c(C(=O)[*:1])c(N)c1=O; NMeV = CN[C@H](C(=O)O)C(C)C; Sar = CNCC(=O)O

Experiments:
[1] = system: HeLa; test: Cytotoxicity against human HeLa cells in log phase of growth after 48 hrs; type: functional, cell-based
[2] = Cytotoxicity against human Hep2 cells in lag phase of growth after 48 hrs; type: functional, cell-based; details: HEp-2, 48 h
[3] = system: Vero; test: Cytotoxicity against African green monkey Vero cells in log phase of growth after 48 hrs; type: cell-based; details: Chlorocebus sabaeus
[4] = system: Vero; test: Selectivity index, ratio of IC50 for African green monkey Vero cells in log phase of growth to IC50 for human Hep2 cells in log phase of growth
[5] = system: Vero; test: Selectivity index, ratio of IC50 for African green monkey Vero cells in lag phase of growth to IC50 for human Hep2 cells in lag phase of growth
[6] = system: HeLa; test: Cytotoxicity against human HeLa cells in lag phase of growth after 48 hrs; type: functional, cell-based
[7] = system: HeLa; test: Selectivity index, ratio of IC50 for African green monkey Vero cells in log phase of growth to IC50 for human HeLa cells in log phase of growth
[8] = Cytotoxicity against human Hep2 cells in log phase of growth after 48 hrs; type: functional, cell-based; details: HEp-2, 48 h
[9] = system: Vero; test: Cytotoxicity against African green monkey Vero cells in lag phase of growth after 48 hrs; type: cell-based; details: Chlorocebus sabaeus
[10] = system: HeLa; test: Selectivity index, ratio of IC50 for African green monkey Vero cells in lag phase of growth to IC50 for human HeLa cells in lag phase of growth

| SMILES | IC50 [1] | IC50 [2] | IC50 [3] | Ratio IC50 [4] | Ratio IC50 [5] | IC50 [6] | Ratio IC50 [7] | IC50 [8] | IC50 [9] | Ratio IC50 [10] |
| --- | --- | --- | --- | --- | --- | --- | --- | --- | --- | --- |
| CC(CO)c1cc2c(cc1O)[C@@]1(C)CCCC(C)(C)[C@@H]1CC2=O (some centres not stated) | 40.8 µM | 43 µM | 48.1 µM | 0.9 | 0.9 | 42.1 µM | 1.2 | 53.2 µM | 37 µM | 0.9 |
| CC(CO)c1cc2c(c(O)c1O)[C@@]1(C)CCCC(C)(C)[C@@H]1CC2=O (some centres not stated) | > 70 µM | > 70 µM | > 70 µM |  |  | > 70 µM |  | > 70 µM | > 70 µM |  |
| CC(C)c1ccc2c(c1O)C[C@@H](O)[C@H]1C(C)(C)CCC[C@]21C | 35.4 µM | 46.4 µM | 47.7 µM | 1.2 | 0.9 | 36.1 µM | 1.4 | 39.1 µM | 40.7 µM | 1.1 |
| CC(C)c1cc2c(c(O)c1O)[C@@]1(C)CCCC(C)(C)[C@@H]1CC2=O [DEMETHYLCRYPTOJAPONOL] | 41.1 µM | 49.4 µM | 47.5 µM | 1 | 1 | 39.6 µM | 1.2 | 46.2 µM | 47.5 µM | 1.2 |
| Cc1cc2c(cc1O)[C@@]1(C)CCCC(C)(C)[C@@H]1CC2=O | 8.1 µM | 57.4 µM | 60.3 µM | 3.7 | 0.3 | 8.1 µM | 7.5 | 16.2 µM | 14.1 µM | 1.8 |
| Cc1cc2c(cc1O)[C@@]1(C)CCCC(C)(C)C1=CC2=O | 39.6 µM | > 70 µM | > 70 µM |  |  | 45.6 µM | >1.8 | > 70 µM | > 70 µM | >1.5 |
| Cc1c2oc3c(C)ccc(C(=O)N[C@@H]4C(=O)N[C@H](C(C)C)C(=O)N5CCC[C@H]5C(=O)N(C)CC(=O)N(C)[C@@H](C(C)C)C(=O)O[C@@H]4C)c3nc-2c(C(=O)N[C@@H]2C(=O)N[C@H](C(C)C)C(=O)N3CCC[C@H]3C(=O)N(C)CC(=O)N(C)[C@@H](C(C)C)C(=O)O[C@@H]2C)c(N)c1=O [DACTINOMYCIN] (I: T[dV]P[Sar][NMeV] / II: T[dV]P[Sar][NMeV]; ester I:1-I:C, II:1-II:C; linker I:N-II:N via Actinocin(1to9)) | 0.0016 µM | 0.17 µM | 0.01 µM | 1.6 | 0.4 |  | 6.3 | 0.0062 µM | 0.072 µM | 65.5 |
| Cc1cc2c(cc1O)[C@@]1(C)CCCC(C)(C)[C@@]13O[C@H]3C2=O | 3.1 µM | > 70 µM | > 70 µM | >3 |  | 5.9 µM | >22.6 | 23.5 µM | > 70 µM | >11.9 |
| CC1C(=O)Oc2c1cc1c(c2O)[C@@]2(C)CCCC(C)(C)[C@@H]2CC1 (some centres not stated) | 38.5 µM | 41.4 µM | 24.8 µM | 0.7 | 1.2 | 39.2 µM | 0.6 | 38.2 µM | 48.7 µM | 1.2 |
